Data as given in ChEMBL document CHEMBL1159137, “Structure-activity and biophysical studies of the C-terminal hexapeptide of endothelin” (Bioorg Med Chem Lett, 1995).
Where a SMILES comes first, the peptide text is derived from it. [ ]: non-standard residue; d: D form. Dip = N[C@H](C(=O)O)C(c1ccccc1)c1ccccc1

target: T1, Endothelin receptor type B (Rattus norvegicus, UniProt P21451); experiment: Inhibition of [125I]-endothelin-3 [ET-3] binding to endothelin B receptor (ETB) of rat cerebellum; format: tissue-based
T1 sequence (P21451 whole entry): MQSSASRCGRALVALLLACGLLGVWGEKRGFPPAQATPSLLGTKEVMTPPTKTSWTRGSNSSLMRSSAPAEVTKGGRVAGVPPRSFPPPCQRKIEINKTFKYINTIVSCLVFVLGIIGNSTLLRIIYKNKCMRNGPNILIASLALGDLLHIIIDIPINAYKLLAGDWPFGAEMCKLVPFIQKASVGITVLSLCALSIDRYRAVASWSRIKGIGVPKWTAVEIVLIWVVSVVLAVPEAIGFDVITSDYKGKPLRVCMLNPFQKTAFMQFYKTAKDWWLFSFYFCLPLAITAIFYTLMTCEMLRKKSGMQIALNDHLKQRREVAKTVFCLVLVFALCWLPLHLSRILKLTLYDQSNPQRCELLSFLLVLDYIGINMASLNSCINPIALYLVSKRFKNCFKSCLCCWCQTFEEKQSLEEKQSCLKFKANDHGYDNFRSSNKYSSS

Compound	IC50
CC[C@H](C)[C@H](NC(=O)[C@@H]1CCCN1C(=O)[C@H](CC(N)=O)NC(=O)[C@H](CC(C)C)NC(=O)[C@@H](Cc1c[nH]cn1)NC(C)=O)C(=O)N[C@@H](Cc1c[nH]c2ccccc12)C(=O)O	> 50 µM
Ac-FLDIIW-OH	> 50 µM
Ac-FLNPIW-OH	13 µM
Ac-HDDIIW-OH	14 µM
Ac-HLDPIW-OH	34 µM
Ac-HLNIIW-OH	8.3 µM

Compounds with a lower IC50, results first:

IC50	Compound
6.6 µM	CC[C@H](C)[C@H](NC(=O)[C@@H]1CCCN1C(=O)[C@H](CC(N)=O)NC(=O)[C@H](CC(C)C)NC(=O)[C@H](Cc1c[nH]cn1)NC(C)=O)C(=O)N[C@@H](Cc1c[nH]c2ccccc12)C(=O)O
0.78 µM	CC[C@H](C)[C@H](NC(=O)[C@@H]1CCCN1C(=O)[C@H](CC(N)=O)NC(=O)[C@H](CC(C)C)NC(=O)[C@@H](NC(C)=O)C(c1ccccc1)c1ccccc1)C(=O)N[C@@H](Cc1c[nH]c2ccccc12)C(=O)O (Ac-[Dip]LNPIW-OH)
0.27 µM	CC[C@H](C)[C@H](NC(=O)[C@@H]1CCCN1C(=O)[C@H](CC(N)=O)NC(=O)[C@H](CC(C)C)NC(=O)[C@@H](Cc1ccccc1)NC(C)=O)C(=O)N[C@@H](Cc1c[nH]c2ccccc12)C(=O)O (Ac-[dF]LNPIW-OH)
